In US20050187288A1, “Beta-lapachone and methods of treating cancer” (priority 2004, published 2005):

How the values were obtained:
ASPC-1 = experiment: Colony formation assay, combination with Taxol; format: cell-based, human; details: β-Lapachone 4 μM, Taxol 0.2 μM, 4 hours
Procedure: Control wells were treated with equivalent volumes of DMSO. After 4 hours cells were rinsed and fresh medium is added. Cultures were observed daily for 10-20 days and then were fixed and stained. […] DNA laddering formation and annexin staining indicate that cell death is due to apoptosis.

G480 lung cancer cells = experiment: Colony formation assay, single agents and combination; format: cell-based; details: G480; β-lapachone 4 μM, 4 hours; average (SEM) of three experiments
Text: Control plates received the same volume of DMSO alone. […] Treated wells were presented as percentage of control. Data were presented as an average (+SEM) from three independent experiments.

60 cancer cell lines = details: FDA approved agents, publicly available data; cited from earlier work

## CC(=O)O[C@H]1C(=O)[C@@]2(C)[C@H]([C@H](OC(=O)c3ccccc3)[C@]3(O)C[C@H](OC(=O)[C@H](O)[C@@H](NC(=O)c4ccccc4)c4ccccc4)C(C)=C1C3(C)C)[C@]1(OC(C)=O)CO[C@@H]1C[C@@H]2O [Taxol ®, paclitaxel, reference compound]
ASPC-1
  Colonies, Percentage of control: 71 (0.8) Percentage of control
G480 lung cancer cells
  Colonies (percent control): 39 (2.6) percent control

## O=C1c2c(O)ccc(O)c2C(=O)c2c(NCCNCCO)ccc(NCCNCCO)c21 [mitoxantrone]
60 cancer cell lines
  mean LC50 across all cells compared with the mean of β-lapachone: equals it
